# Test system: 624824-186-R-J2-PDC multicell spheroids, viability
# Assay: Anticancer human tumor 624824-186-R-J2-PDC patient-derived colon adenocarcinoma cell line growth inhibition [PI3K]
# Conditions: for IC50: curve of first compound; for viability, T/C: stronger effect = lower value
# Text: Combinatorial screen of targeted agents with the PI3K inhibitors inavolisib, alpelisib, duvelisib, and copanlisib in multi-cell type tumor spheroids
# A high-throughput screen of multi-cell type tumor spheroids was designed to identify active combinations of targeted small molecules and PI3K pathway inhibitors. Complex spheroids include a stromal component modeled by human endothelial cells (HUVEC) and fibroblasts modeled by human mesenchymal stem cells (MSCs). The concentration ranges selected for each drug and investigational agent were based upon clinically achievable concentrations if the clinical Cmax of the agent was known.
# Compounds. The drugs and investigational agents: inavolisib (NSC800729), alpelisib (NSC765974), duvelisib (NSC772469), copanlisib (NSC816437), ipatasertib (NSC767898), afuresertib (NSC778305), talazoparib (NSC767125), sapanisertib (NSC764658), selumetinib (NSC741078), tovorafenib (DAY101, NSC766906), vemurafenib (NSC761431), ravoxertinib (NSC781343), sotorasib (NSC818433), MRTX1133 (NSC 836407), abemaciclib (NSC 768073), palbociclib (NSC758247), venetoclax (NSC 766270), SY5609 (NSC837396), enzalutamide (NSC755605), and darolutamide (NSC825331), were obtained from the National Cancer Institute (NCI) Developmental Therapeutics Program Chemical Repository. The FDA-approved anticancer drug set is available from the NCI Developmental Therapeutics Program. […] The stock solutions were prepared in dimethyl sulfoxide (DMSO, Sigma-Aldrich, St. Louis, MO, cat. D2650) at 800-fold the tested concentration and stored at -70 degrees C prior to their use. All drugs and investigational agents were tested over a range starting from a high concentration at or near the clinical Cmax and decreasing in half-log increments. If the clinical Cmax for an agent had not been determined, the highest concentration tested was 10 microM.
# Cell Culture. All cells were maintained in an incubator at 37 degrees C and 5% CO2 with 95% humidity. The PDC lines were cultured according to standard operating procedures established by the NCI PDMR (https://pdmr.cancer.gov/sops/default.htm). All PDCs were thawed and cultured in Matrigel-coated flasks prepared with a working solution of 1X Ham's F-12 nutrient mix, without supplementation (Invitrogen, Waltham, MA, cat. 11765054), 100 U/mL penicillin-streptomycin (Invitrogen, cat. 15140122), and 2.5% Matrigel (Corning Inc., Corning, NY, cat. 354248) for the first three passages. The 354836-022-R-J1-PDC, 475296-252-R-J1-PDC, and 997726-040-R-J2-PDC lines were cultured in 6A media, which includes advanced DMEM/F-12 (Thermo Fisher Scientific, cat. 12634028), 10 mM HEPES (Thermo Fisher Scientific, cat. 15630080), 1X GlutaMAX supplement (Thermo Fisher Scientific, cat. 35050061), 0.1 mg/mL primocin (InvivoGen, San Diego, CA, cat. ant-pm-2), 10% defined fetal bovine serum, heat inactivated (HyClone Laboratories Inc., Logan, UT, cat. SH30070.03HI), 50% L-WRN conditioned media (ATCC, cat. CRL-3276), 1.25 mM N-Acetyl-L-cysteine (Sigma-Aldrich, cat. A9165), 10 mM nicotinamide (Sigma-Aldrich, cat. N0636), 1X B-27 supplement (Thermo Fisher Scientific, cat. 17504044), 1X N-2 supplement (Thermo Fisher Scientific, cat. 17502048), and 10 microM Y-27632 dihydrochloride (Tocris Bioscience, Bristol, United Kingdom, cat. 1254). The 624824-186-R-J2-PDC line was cultured in 6C/Colon 1B media, which includes all 6A media components plus 50 ng/mL human EGF recombinant protein (Thermo Fisher Scientific, cat. PHG0311). […]
# [1] = second compound 0.00316 µM, first compound 0.0316 µM
# [2] = second compound 0.00316 µM, first compound 0.1 µM
# [3] = second compound 0.01 µM, first compound 0.0316 µM
# [4] = second compound 0.01 µM, first compound 0.1 µM
# [5] = second compound 0.0316 µM, first compound 0.0316 µM
# [6] = second compound 0.0316 µM, first compound 0.1 µM
# [7] = second compound 0.1 µM, first compound 0.0316 µM
# [8] = second compound 0.1 µM, first compound 0.1 µM
# [9] = second compound 0.316 µM, first compound 0.0316 µM
# [10] = second compound 0.316 µM, first compound 0.1 µM
# [11] = second compound 1 µM, first compound 0.0316 µM
# [12] = second compound 1 µM, first compound 0.1 µM
# 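Note: spheroids exposed to agents for 7 days before viability read.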
# 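Throughout, for viability, T/C: 100% = DMSO vehicle treated spheroids.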
structure (smiles),measurement,setting,value
CC(=O)c1c(C)c2cnc(Nc3ccc(N4CCNCC4)cn3)nc2n(C2CCCC2)c1=O + CC(Nc1ccc2c(c1)OCCn1cc(N3C(=O)OCC3C(F)F)nc1-2)C(N)=O,IC50,second compound 0.00316 µM,> 0.1 µM
same,IC50,second compound 0.01 µM,> 0.1 µM
same,IC50,second compound 0.0316 µM,> 0.1 µM
same,IC50,second compound 0.1 µM,> 0.1 µM
same,IC50,second compound 0.316 µM,> 0.1 µM
same,IC50,second compound 1 µM,> 0.1 µM
same,"viability, T/C","second compound 0.00316 µM, first compound 0.000316 µM",105%
same,"viability, T/C","second compound 0.00316 µM, first compound 0.001 µM",80.9%
same,"viability, T/C","second compound 0.00316 µM, first compound 0.00316 µM",108%
same,"viability, T/C","second compound 0.00316 µM, first compound 0.01 µM",96.2%
same,"viability, T/C",[1],82.7%
same,"viability, T/C",[2],89.9%
same,"viability, T/C","second compound 0.01 µM, first compound 0.000316 µM",114%
same,"viability, T/C","second compound 0.01 µM, first compound 0.001 µM",92.7%
same,"viability, T/C","second compound 0.01 µM, first compound 0.00316 µM",106%
same,"viability, T/C","second compound 0.01 µM, first compound 0.01 µM",101%
same,"viability, T/C",[3],93.7%
same,"viability, T/C",[4],91.7%
same,"viability, T/C","second compound 0.0316 µM, first compound 0.000316 µM",104%
same,"viability, T/C","second compound 0.0316 µM, first compound 0.001 µM",94.2%
same,"viability, T/C","second compound 0.0316 µM, first compound 0.00316 µM",113%
same,"viability, T/C","second compound 0.0316 µM, first compound 0.01 µM",85.2%
same,"viability, T/C",[5],101%
same,"viability, T/C",[6],102%
same,"viability, T/C","second compound 0.1 µM, first compound 0.000316 µM",86.7%
same,"viability, T/C","second compound 0.1 µM, first compound 0.001 µM",101%
same,"viability, T/C","second compound 0.1 µM, first compound 0.00316 µM",91.2%
same,"viability, T/C","second compound 0.1 µM, first compound 0.01 µM",75.5%
same,"viability, T/C",[7],80.1%
same,"viability, T/C",[8],87.7%
same,"viability, T/C","second compound 0.316 µM, first compound 0.000316 µM",87.7%
same,"viability, T/C","second compound 0.316 µM, first compound 0.001 µM",76.6%
same,"viability, T/C","second compound 0.316 µM, first compound 0.00316 µM",78.8%
same,"viability, T/C","second compound 0.316 µM, first compound 0.01 µM",85.8%
same,"viability, T/C",[9],87%
same,"viability, T/C",[10],113%
same,"viability, T/C","second compound 1 µM, first compound 0.000316 µM",90%
same,"viability, T/C","second compound 1 µM, first compound 0.001 µM",85.4%
same,"viability, T/C","second compound 1 µM, first compound 0.00316 µM",86.5%
same,"viability, T/C","second compound 1 µM, first compound 0.01 µM",87.3%
same,"viability, T/C",[11],86.1%
same,"viability, T/C",[12],93.1%
CNC(=O)c1ccc(N2C(=S)N(c3ccc(C#N)c(C(F)(F)F)c3)C(=O)C2(C)C)cc1F + CC(Nc1ccc2c(c1)OCCn1cc(N3C(=O)OCC3C(F)F)nc1-2)C(N)=O,IC50,second compound 0.00316 µM,> 10 µM
same,IC50,second compound 0.01 µM,> 10 µM
same,IC50,second compound 0.0316 µM,> 10 µM
same,IC50,second compound 0.1 µM,> 10 µM
same,IC50,second compound 0.316 µM,> 10 µM
same,IC50,second compound 1 µM,> 10 µM
same,"viability, T/C",[1],90.2%
same,"viability, T/C",[2],90.7%
same,"viability, T/C","second compound 0.00316 µM, first compound 0.316 µM",107%
same,"viability, T/C","second compound 0.00316 µM, first compound 1 µM",96.3%
same,"viability, T/C","second compound 0.00316 µM, first compound 3.16 µM",134%
same,"viability, T/C","second compound 0.00316 µM, first compound 10 µM",121%
same,"viability, T/C",[3],88.3%
same,"viability, T/C",[4],107%
same,"viability, T/C","second compound 0.01 µM, first compound 0.316 µM",88.5%
same,"viability, T/C","second compound 0.01 µM, first compound 1 µM",86.4%
same,"viability, T/C","second compound 0.01 µM, first compound 3.16 µM",124%
same,"viability, T/C","second compound 0.01 µM, first compound 10 µM",109%
same,"viability, T/C",[5],75.5%
same,"viability, T/C",[6],77.3%
same,"viability, T/C","second compound 0.0316 µM, first compound 0.316 µM",89.5%
same,"viability, T/C","second compound 0.0316 µM, first compound 1 µM",80.5%
same,"viability, T/C","second compound 0.0316 µM, first compound 3.16 µM",102%
same,"viability, T/C","second compound 0.0316 µM, first compound 10 µM",98.3%
same,"viability, T/C",[7],72.3%
same,"viability, T/C",[8],66%
same,"viability, T/C","second compound 0.1 µM, first compound 0.316 µM",84.8%
same,"viability, T/C","second compound 0.1 µM, first compound 1 µM",67.8%
same,"viability, T/C","second compound 0.1 µM, first compound 3.16 µM",78%
same,"viability, T/C","second compound 0.1 µM, first compound 10 µM",102%
same,"viability, T/C",[9],78%
same,"viability, T/C",[10],72.3%
same,"viability, T/C","second compound 0.316 µM, first compound 0.316 µM",88.5%
same,"viability, T/C","second compound 0.316 µM, first compound 1 µM",76.9%
same,"viability, T/C","second compound 0.316 µM, first compound 3.16 µM",104%
same,"viability, T/C","second compound 0.316 µM, first compound 10 µM",98.7%
same,"viability, T/C",[11],69%
same,"viability, T/C",[12],78%
same,"viability, T/C","second compound 1 µM, first compound 0.316 µM",89.3%
same,"viability, T/C","second compound 1 µM, first compound 1 µM",87.5%
same,"viability, T/C","second compound 1 µM, first compound 3.16 µM",95.2%
same,"viability, T/C","second compound 1 µM, first compound 10 µM",93.7%
